Here are results for 13 molecules from US7858653B2, “2-imidazoles” (Hoffman-La Roche Inc., priority 2006, dated 2010).

Structures are written as SMILES.

In one experiment the target is T1, mouse TAAR1 (Mus musculus, UniProt Q923Y8).
T1 construct: expressed in transfected cells; host or cells: HEK293 cells (ATCC # CRL-1573), stably transfected with pIRESneo2 expression plasmid; membranes prepared
T1 sequence (Q923Y8 whole entry): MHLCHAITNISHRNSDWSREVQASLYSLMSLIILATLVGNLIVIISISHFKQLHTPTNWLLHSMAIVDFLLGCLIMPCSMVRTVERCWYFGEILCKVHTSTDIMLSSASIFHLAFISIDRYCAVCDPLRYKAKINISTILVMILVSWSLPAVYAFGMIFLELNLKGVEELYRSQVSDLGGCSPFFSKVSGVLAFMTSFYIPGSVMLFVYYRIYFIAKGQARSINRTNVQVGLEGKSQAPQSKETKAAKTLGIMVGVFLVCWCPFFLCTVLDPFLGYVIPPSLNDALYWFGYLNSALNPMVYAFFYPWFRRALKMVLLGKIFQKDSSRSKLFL
As to the kind of experiment: Radioligand binding assay on membranes of HEK293 cells stably expressing TAAR1. As to conditions: TAAR1 membrane binding; species not given; read-out: calculated Kd value of the radioligand. As to the method: Construction of TAAR Expression Plasmids and Stably Transfected Cell Lines
For the construction of expression plasmids the coding sequences of human, rat and mouse TAAR1 were amplified from genomic DNA essentially as described by Lindemann et al. (2005) genomics 85, 372-385. The Expand High Fidelity PCR System (Roche Diagnostics) was used with 1.5 mM Mg^2+ and purified PCR products were cloned into pCR2.1-TOPO cloning vector (Invitrogen) following the instructions of the manufacturer. PCR products were subcloned into the pIRESneo2 vector (BD Clontech, Palo Alto, Calif.), and expression vectors were sequence verified before introduction in cell lines.
HEK293 cells (ATCC # CRL-1573) were cultured essentially as described Lindemann et al. (2005) genomics 85, 372-385. For the generation of stably transfected cell lines HEK293 cells were transfected with the pIRESneo2 expression plasmids containing the TAAR coding sequences (described above) with Lipofectamine 2000 (Invitrogen) according to the instructions of the manufacturer, and 24 hours post transfection the culture medium was supplemented with 1 mg/ml G418 (Sigma, Buchs, Switzerland). After a culture period of about 10 d clones were isolated, expanded and tested for responsiveness to trace amines (all compounds purchased from Sigma) with the cAMP Biotrak Enzyme immunoassay (EIA) System (Amersham) following the non-acetylation EIA procedure provided by the manufacturer.
Membrane Preparation and Radioligand Binding
Cells at confluence were rinsed with ice-cold phosphate buffered saline without Ca^2+ and Mg^2+ containing 10 mM EDTA and pelleted by centrifugation at 1000 rpm for 5 minutes at 4° C. The pellet was then washed twice with ice-cold phosphate buffered saline and the cell pellet was frozen immediately by immersion in liquid nitrogen and stored until use at −80° C. The cell pellet was then suspended in 20 ml HEPES-NaOH (20 mM), pH 7.4 containing 10 mM EDTA, and homogenized with a Polytron (PT 3000, Kinematica) at 10,000 rpm for 10 seconds. The homogenate was centrifuged at 48,000×g for 30 minutes at 4° C. and the pellet resuspended in 20 ml HEPES-NaOH (20 mM), pH 7.4 containing 0.1 mM EDTA (buffer A), and homogenized with a Polytron at 10,000 rpm for 10 seconds. The homogenate was then centrifuged at 48,000×g for 30 minutes at 4° C. and the pellet resuspended in 20 ml buffer A, and homogenized with a Polytron at 10,000 rpm for 10 seconds. Protein concentration was determined by the method of Pierce (Rockford, Ill.). The homogenate was then centrifuged at 48,000×g for 10 minutes at 4° C., resuspended in HEPES-NaOH (20 mM), pH 7.0 including MgCl2 (10 mM) and CaCl2 ([…]) (buffer B) at 200 μg protein per ml and homogenized with a Polytron at 10,000 rpm for 10 seconds.
Binding assay was performed at 4° C. in a final volume of 1 ml, and with an incubation time of 30 minutes. The radioligand [^3H]-rac-2-(1,2,3,4-tetrahydro-1-naphthyl)-2-imidazoline was used at a concentration equal to the calculated Kd value of 60 nM to give a total binding at around 0.1% of the total added radioligand concentration, and a specific binding which represented approximately 70-80% of the total binding. Non-specific binding was defined as the amount of [^3H]-rac-2-(1,2,3,4-tetrahydro-1-naphthyl)-2-imidazoline bound in the presence of the appropriate unlabelled ligand (10 μM). Competing ligands were tested in a wide range of concentrations (10 pM-30 μM). […] Each experiment was performed in duplicate. All incubations were terminated by rapid filtration through UniFilter-96 plates (Packard Instrument Company) and glass filter GF/C, pre-soaked for at least 2 hours in polyethylenimine 0.3%, and using a Filtermate 96 Cell Harvester (Packard Instrument Company). […]
As for `c1ccc2c(c1)CCCC2C1=NCCN1` (racemic) [[^3H]-rac-2-(1,2,3,4-tetrahydro-1-naphthyl)-2-imidazoline, reference compound], the equilibrium dissociation constant (Kd) was 60 nM.

The same experiment, now with this note: mouse TAAR1; radioligand [3H]-rac-2-(1,2,3,4-tetrahydro-1-naphthyl)-2-imidazoline at 60 nM; 4° C., 30 minutes.
`COC(Cc1ncc[nH]1)c1cccc(Cl)c1` (stereo not shown) [Example 1, 2-[2-(3-Chloro-phenyl)-2-methoxy-ethyl]-1H-imidazole]: the Ki came to 0.78 µM.

`CC(Nc1ncc[nH]1)c1cccc(Cl)c1Cl` (racemic) [Example 22, (R,S)-[1-(2,3-Dichloro-phenyl)-ethyl]-(1H-imidazol-2-yl)-amine]: the inhibition constant (Ki) came out at 0.076 µM.

`Clc1ccc(CNc2ncc[nH]2)cc1Cl` [Example 7, (3,4-Dichloro-benzyl)-(1H-imidazol-2-yl)-amine] came in with a Ki of 0.47 µM.

On to `CC(Nc1ncc[nH]1)c1ccccc1` (racemic) [Example 9, (R,S)-(1H-Imidazol-2-yl)-(1-phenyl-ethyl)-amine], for which the inhibitory constant (Ki) turned out to be 0.46 µM.

Turning to `c1ccc2cc(CNc3ncc[nH]3)ccc2c1` [Example 24, (1H-Imidazol-2-yl)-naphthalen-2-ylmethyl-amine], the inhibition constant Ki turned out to be 0.67 µM.

`Clc1cccc(CNc2ncc[nH]2)c1Cl` [Example 8, (2,3-Dichloro-benzyl)-(1H-imidazol-2-yl)-amine] displayed an inhibition constant (Ki) of 0.18 µM.

For `Clc1cccc(SCc2ncc[nH]2)c1Cl` [Example 3, 2-(2,3-Dichloro-phenylsulfanylmethyl)-1H-imidazole], affinity was put at a Ki of 0.14 µM.

The molecule `Cc1cccc(CNc2ncc[nH]2)c1` [Example 11, (1H-Imidazol-2-yl)-(3-methyl-benzyl)-amine] had a Ki of 0.94 µM.

For the molecule `Cc1ccccc1C(C)Nc1ncc[nH]1` (racemic) [Example 21, (R,S)-(1H-Imidazol-2-yl)-(1-o-tolyl-ethyl)-amine], the affinity corresponds to a Ki of 0.81 µM.

`Fc1cccc(CNc2ncc[nH]2)c1` [Example 16, (3-Fluoro-benzyl)-(1H-imidazol-2-yl)-amine]: the Ki amounted to 0.98 µM.

`CC(Nc1ncc[nH]1)c1ccccc1Cl` (racemic) [Example 29, (RS)-[1-(2-Chloro-phenyl)-ethyl]-(1H-imidazol-2-yl)-amine] gave an inhibition constant Ki of 0.24 µM.

For `Clc1cccc(CNc2ncc[nH]2)c1` [Example 6, (3-Chloro-benzyl)-(1H-imidazol-2-yl)-amine], the affinity, expressed as Ki, was 0.86 µM.
